Tests used:
A2780 cells = assay: DNA platination in A2780 cells; format: cell-based, human; conditions: A2780, 24 h CT, 10 μM
Experimental: Cells were seeded in 175 cm^2 flasks and treated for 24 h with the complexes under investigation (10 μM) as described previously. From this sample, about 5 × 10^6 cells were taken out for the cellular accumulation analysis (see the previous section), whereas about 20 × 10^6 cells were taken out for the DNA platination analysis.
For DNA platination analysis, cells were transferred to a plastic tube and centrifuged at 1100 rpm for 5 min at room temperature. […]
After washing, DNA was eluted in 300 μL of elution buffer. […] Absorbance at 260 nm (A260, relative to nucleic acids) and 280 nm (A280, relative to proteins) was recorded from triplicate wells.
For each well, A260 and A280 were corrected by subtracting the background, and then the purity of the samples was verified by means of the A260 to A280 ratio. After subtracting the mean A260 from the blank wells, the DNA concentration was calculated from the corrected A260 using a calibration curve obtained with the calf thymus DNA. Under these conditions, an absorbance of 1 unit at 260 nm corresponds to 100 μg of DNA per mL. The remaining amount of DNA elution buffer was transferred to a borosilicate glass tube, and its precise volume was determined by weight to calculate the total amount of DNA and then stored at −20°C until mineralization. […]

A2780cisR cells = assay: Cellular Pt accumulation (accumulation ratio) in A2780cisR cells; format: cell-based, human; conditions: 4 h CT, 10 μM
Experimental: A2780 and A2780cisR cells were seeded in 10 mm Petri dishes and challenged with complexes under investigation (10 μM) in a complete medium for 4 h. At the end of the exposure, cells were washed three times with PBS, detached from Petri dishes using 0.05% trypsin 1x + 2% EDTA (HyClone, Thermo Fisher), and harvested in a completely fresh medium. An automatic cell counting device (Countess®, Life Technologies) was used to measure the number and mean diameter of each cell necessary to calculate the mean cellular (spherical) volume.
For the analysis of Pt accumulation, cells were transferred to a borosilicate glass tube and centrifuged at 1100 rpm for 5 min at room temperature. […]
The determination of the platinum content was performed by ICP-MS (Thermo Optek X Series 2). […] The instrument settings were optimized to produce the highest platinum sensitivity, and the most abundant isotopes of Pt and In (used as an internal standard) were quantified at m/z 195 and 115, respectively.
The quantity of Pt found in cells and normalized on cell number (cellular Pt accumulation) was expressed as ng of Pt per 10^6 cells. The mean cellular volume, calculated from the actual mean cell diameter measured for each sample (about 12 μm), was used to obtain the volume of 10^6 cells and, finally, the intracellular Pt concentration. […]

CC(=O)[O][Pt]([OH])([Cl])[Cl].N.N [Complex 2, (OC-6-44)-acetatodiamminedichloridohydroxidoplatinum(IV)]
DNA platination (A2780 cells): the highest among Complexes 1–3 and was similar to that of cisplatin

N.N.[Cl][Pt][Cl] [Cisplatin, (SP-4-2)-diamminedichloridoplatinum(II)]
Pt accumulation (AR) in A2780cisR compared with A2780 (A2780cisR cells): much lower amounts of Pt than A2780
